# Measurements: ChEMBL document CHEMBL1201862, “PubChem BioAssay data set” (2004)
# Calls of active or inactive are those of the source.
# Key:
# [1] = cells; type: functional, cell-based
# [2] = molecular target: Nuclear receptor subfamily 0 group B member 1 (Homo sapiens, UniProt P51843); type: functional, cell-based;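 note: HEK293T cells transfected with SF-1 and DAX-1 plus StAR promoter luciferase reporter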
# [3] = molecular target: Fructose-bisphosphate aldolase (Mycobacterium tuberculosis, UniProt P9WQA3); test: Fluorescence-based biochemical high throughput dose response assay for inhibitors of the fructose-bisphosphate aldolase (FBA) of M. tuberculosis.; type: functional
# [4] = molecular target: Paired box protein Pax-8 (Homo sapiens, UniProt Q06710); test: PAX8 transcriptional activity inhibition in RMG-I – RMG-I cells, luciferase, cherry-pick, dose response (AID 687027); type: functional, cell-based;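 note: luciferase reporter driven by Pax8 target thyroperoxidase promoter measured by SteadyGlo luminescence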
# Chain of Paired box protein Pax-8 (Q06710 whole entry): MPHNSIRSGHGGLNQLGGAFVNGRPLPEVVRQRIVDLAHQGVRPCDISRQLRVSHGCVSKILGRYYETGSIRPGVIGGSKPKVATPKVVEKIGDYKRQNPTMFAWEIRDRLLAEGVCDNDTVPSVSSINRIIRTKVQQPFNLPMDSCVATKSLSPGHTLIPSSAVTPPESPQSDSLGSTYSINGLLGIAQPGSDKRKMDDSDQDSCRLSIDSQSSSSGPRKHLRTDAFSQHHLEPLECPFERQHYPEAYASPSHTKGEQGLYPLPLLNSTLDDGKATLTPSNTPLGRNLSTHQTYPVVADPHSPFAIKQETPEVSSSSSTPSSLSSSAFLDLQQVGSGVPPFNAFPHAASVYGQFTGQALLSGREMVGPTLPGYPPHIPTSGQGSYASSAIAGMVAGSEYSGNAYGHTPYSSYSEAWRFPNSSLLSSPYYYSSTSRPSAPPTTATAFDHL
# [5] = toxicity toward immortalized ovarian surface epithelium – cell-based, plate reader, dry powder samples, cytotoxicity control for PAX8 inhibitor project, dose response (AID 743045); type: functional
# [6] = A2780 cell killing – plate reader, dry powder samples, cytotoxicity control, dose response (AID 743046); type: functional, cell-based
# [7] = OVCAR-3 cell viability loss – plate reader, dry powder samples, PAX8 inhibitor project, dose response (AID 743044); type: functional, cell-based
# [8] = OVCAR8 cell viability loss – plate reader, dry powder samples, PAX8 project, dose response (AID 743197); type: functional, cell-based; settings: OVCAR-8
# [9] = inhibitors acting on PAX2 in cells – cell-based, plate reader, dry powder samples, selectivity assay for PAX8 inhibitor project, dose response (AID 743048); type: functional;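 note: HEK293 cells carrying a WT1 promoter luciferase reporter driven by expressed Pax2; potency is for inhibition of Pax2 driven reporter signal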
# [10] = PAX5 cellular inhibition readout – cell-based, plate reader, dry powder samples, selectivity assay for PAX8 inhibitor project, dose response (AID 743047); type: functional;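 note: HEK293 cells carrying a Pax5 driven CD19 promoter luciferase reporter; potency of inhibitors that lower reporter luminescence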
# [11] = OVCAR4 cell viability loss – plate reader, dry powder, SA11, cytotoxicity control for PAX8 inhibitor project, dose response (AID 743150); type: functional, cell-based; settings: OVCAR-4
# [12] = COV434 cell viability loss – plate reader, dry powder, SA7, cytotoxicity control for PAX8 inhibitor project, dose response (AID 743145); type: functional, cell-based
# [13] = OV-90 cell viability loss – plate reader, dry powder, SA8, PAX8 inhibitor project, dose response (AID 743149); type: functional, cell-based
# [14] = PAX8-dependent cell viability loss – plate reader, dry powder, dose response (AID 743049); type: functional, cell-based
# [15] = molecular target: T1, Delta-type opioid receptor (Homo sapiens, UniProt P41143); test: HTS Image-Based Screen for Antagonists of the DOR Receptor. [Related pubchem assays (depositor defined):AID1777, AID1785, AID1786, AID2133]; type: functional
# T1 sequence (P41143 whole entry): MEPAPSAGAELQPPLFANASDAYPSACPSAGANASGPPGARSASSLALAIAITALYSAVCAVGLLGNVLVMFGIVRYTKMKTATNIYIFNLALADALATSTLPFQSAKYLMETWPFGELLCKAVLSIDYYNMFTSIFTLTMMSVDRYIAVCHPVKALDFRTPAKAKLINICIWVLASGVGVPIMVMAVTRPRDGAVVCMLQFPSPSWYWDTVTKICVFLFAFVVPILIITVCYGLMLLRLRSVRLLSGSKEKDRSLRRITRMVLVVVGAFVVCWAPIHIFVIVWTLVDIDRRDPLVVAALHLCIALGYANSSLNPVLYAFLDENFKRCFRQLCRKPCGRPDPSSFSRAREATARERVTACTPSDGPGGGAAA
# [16] = molecular target: Mu-type opioid receptor (Homo sapiens, UniProt P35372); test: HTS Image-Based Screen for Agonists of the MOR Receptor. [Related pubchem assays (depositor defined):AID1777, AID1785, AID1786, AID2133]; type: functional;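 note: imaging of beta-arrestin GFP recruitment into spots after receptor activation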
# Chain of Mu-type opioid receptor (P35372 whole entry): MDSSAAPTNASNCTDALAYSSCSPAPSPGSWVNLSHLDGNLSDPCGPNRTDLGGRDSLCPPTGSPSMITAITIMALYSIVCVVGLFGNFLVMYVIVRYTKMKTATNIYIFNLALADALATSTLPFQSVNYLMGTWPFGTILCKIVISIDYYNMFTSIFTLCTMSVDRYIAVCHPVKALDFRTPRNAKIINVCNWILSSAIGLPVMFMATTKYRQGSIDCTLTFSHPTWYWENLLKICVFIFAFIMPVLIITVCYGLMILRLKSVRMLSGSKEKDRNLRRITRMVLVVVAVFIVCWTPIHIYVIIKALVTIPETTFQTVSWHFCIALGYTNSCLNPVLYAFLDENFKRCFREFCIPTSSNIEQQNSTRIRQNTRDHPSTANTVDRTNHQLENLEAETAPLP
# [17] = molecular target: T1, Delta-type opioid receptor; test: HTS Image-Based Screen for Agonists of the DOR Receptor. [Related pubchem assays (depositor defined):AID1777, AID1786, AID2133]; type: functional
# [18] = molecular target: T2, Kappa-type opioid receptor (Homo sapiens, UniProt P41145); type: functional
# T2 sequence (P41145 whole entry): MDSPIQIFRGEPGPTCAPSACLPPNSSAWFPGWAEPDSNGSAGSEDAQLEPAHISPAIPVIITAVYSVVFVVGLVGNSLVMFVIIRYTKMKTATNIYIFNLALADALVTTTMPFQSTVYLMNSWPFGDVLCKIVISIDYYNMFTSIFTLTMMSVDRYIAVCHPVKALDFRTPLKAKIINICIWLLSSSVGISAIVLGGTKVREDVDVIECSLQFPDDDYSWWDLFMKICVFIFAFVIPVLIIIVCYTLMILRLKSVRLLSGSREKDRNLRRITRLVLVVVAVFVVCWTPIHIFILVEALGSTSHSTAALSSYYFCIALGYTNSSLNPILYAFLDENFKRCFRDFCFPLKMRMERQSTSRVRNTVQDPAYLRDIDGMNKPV
# [19] = molecular target: Beta-galactosidase (Escherichia coli, UniProt Q8VNN2); type: functional
# Chain of Beta-galactosidase (Q8VNN2 whole entry): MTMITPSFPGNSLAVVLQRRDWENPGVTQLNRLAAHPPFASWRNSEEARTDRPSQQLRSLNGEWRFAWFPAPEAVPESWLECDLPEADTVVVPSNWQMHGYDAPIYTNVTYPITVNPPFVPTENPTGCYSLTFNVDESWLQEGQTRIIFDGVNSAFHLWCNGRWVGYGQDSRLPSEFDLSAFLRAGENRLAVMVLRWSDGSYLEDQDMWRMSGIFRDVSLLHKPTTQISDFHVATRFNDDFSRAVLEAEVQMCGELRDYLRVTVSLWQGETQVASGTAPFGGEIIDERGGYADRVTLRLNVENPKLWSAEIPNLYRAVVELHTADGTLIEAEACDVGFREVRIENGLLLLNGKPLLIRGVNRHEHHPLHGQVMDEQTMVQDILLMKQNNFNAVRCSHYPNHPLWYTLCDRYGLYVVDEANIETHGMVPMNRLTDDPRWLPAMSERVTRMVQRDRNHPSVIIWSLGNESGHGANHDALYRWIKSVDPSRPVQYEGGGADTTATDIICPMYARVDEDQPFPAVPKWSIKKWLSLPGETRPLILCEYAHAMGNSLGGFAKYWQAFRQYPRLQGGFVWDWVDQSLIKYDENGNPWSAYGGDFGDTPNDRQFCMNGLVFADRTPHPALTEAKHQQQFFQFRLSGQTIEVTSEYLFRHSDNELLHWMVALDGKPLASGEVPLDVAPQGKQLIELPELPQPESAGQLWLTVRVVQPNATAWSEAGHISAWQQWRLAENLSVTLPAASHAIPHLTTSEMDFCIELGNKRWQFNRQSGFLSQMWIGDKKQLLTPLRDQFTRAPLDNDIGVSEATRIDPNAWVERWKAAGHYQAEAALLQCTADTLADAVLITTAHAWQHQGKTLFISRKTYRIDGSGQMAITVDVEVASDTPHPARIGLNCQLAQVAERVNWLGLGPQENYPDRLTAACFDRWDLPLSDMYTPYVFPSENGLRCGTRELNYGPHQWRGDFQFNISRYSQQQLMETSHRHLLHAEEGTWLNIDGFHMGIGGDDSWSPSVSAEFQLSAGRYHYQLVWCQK
# [20] = molecular target: T2, Kappa-type opioid receptor; type: functional; remark: listed apart in the source
# [21] = molecular target: SWI/SNF-related matrix-associated actin-dependent regulator of chromatin subfamily A member 2 (Homo sapiens, UniProt P51531); test: Luminescence-based cell-based high throughput dose response assay to identify activators of the function of SWI/SNF related, matrix associated, actin dependent regulator of chromatin, subfamily a, member 2 (SMARCA2, BRM).; type: functional
# Chain of SWI/SNF-related matrix-associated actin-dependent regulator of chromatin subfamily A member 2 (P51531 whole entry): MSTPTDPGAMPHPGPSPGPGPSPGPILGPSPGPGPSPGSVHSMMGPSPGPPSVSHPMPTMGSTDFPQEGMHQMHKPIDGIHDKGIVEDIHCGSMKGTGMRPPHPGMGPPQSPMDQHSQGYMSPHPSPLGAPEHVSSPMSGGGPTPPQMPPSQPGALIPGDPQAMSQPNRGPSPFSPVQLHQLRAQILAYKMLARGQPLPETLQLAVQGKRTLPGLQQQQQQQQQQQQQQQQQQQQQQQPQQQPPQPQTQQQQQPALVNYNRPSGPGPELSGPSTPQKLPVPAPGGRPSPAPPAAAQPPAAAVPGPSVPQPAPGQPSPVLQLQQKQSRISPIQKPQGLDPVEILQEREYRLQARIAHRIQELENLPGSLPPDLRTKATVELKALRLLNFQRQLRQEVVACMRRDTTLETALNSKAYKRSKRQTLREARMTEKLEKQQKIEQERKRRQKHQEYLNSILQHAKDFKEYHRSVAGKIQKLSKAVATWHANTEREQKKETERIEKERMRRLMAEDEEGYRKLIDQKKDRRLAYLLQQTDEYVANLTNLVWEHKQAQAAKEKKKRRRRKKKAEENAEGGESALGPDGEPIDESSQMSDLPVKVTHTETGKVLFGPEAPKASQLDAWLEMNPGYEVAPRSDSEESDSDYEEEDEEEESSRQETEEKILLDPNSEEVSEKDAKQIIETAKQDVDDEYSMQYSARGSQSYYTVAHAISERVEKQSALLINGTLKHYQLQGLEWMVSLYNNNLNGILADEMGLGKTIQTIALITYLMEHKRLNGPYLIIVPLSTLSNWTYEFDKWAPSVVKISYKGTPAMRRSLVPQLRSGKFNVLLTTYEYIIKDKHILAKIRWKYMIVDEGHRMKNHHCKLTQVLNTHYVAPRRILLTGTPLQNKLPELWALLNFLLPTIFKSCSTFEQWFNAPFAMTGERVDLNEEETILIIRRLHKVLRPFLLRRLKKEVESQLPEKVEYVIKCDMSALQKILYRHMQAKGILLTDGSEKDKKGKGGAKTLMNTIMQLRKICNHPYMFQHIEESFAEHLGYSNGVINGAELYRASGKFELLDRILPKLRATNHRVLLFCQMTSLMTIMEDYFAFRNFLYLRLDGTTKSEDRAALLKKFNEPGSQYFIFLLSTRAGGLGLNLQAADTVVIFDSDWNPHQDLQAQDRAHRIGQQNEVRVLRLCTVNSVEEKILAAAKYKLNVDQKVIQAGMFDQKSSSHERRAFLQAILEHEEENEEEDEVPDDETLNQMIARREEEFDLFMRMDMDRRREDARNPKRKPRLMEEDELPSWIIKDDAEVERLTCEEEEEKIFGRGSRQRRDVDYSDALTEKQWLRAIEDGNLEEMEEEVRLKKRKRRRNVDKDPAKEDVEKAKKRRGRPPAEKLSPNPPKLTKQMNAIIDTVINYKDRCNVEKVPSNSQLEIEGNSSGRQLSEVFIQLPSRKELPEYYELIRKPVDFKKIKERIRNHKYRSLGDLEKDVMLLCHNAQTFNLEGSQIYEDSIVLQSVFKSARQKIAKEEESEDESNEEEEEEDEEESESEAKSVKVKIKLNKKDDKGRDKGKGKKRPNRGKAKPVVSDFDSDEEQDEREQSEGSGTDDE
# [22] = Counterscreen for activators of the function of SWI/SNF related, matrix associated, actin dependent regulator of chromatin, subfamily a, member 2 (SMARCA2, BRM): Luminescence-based cell-based high throughput dose response assay to identify non-selective compounds using the VP16 reporter assay.; type: functional
# [23] = potency of ADAM10 substrate cleavage blockers – biochemical, QFRET, dose response (AID 743254);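 note: ADAM10 enzyme with the DM2 quenched FRET peptide as substrate; EDANS fluorescence gain as the protease cuts the substrate; inhibitor potency against ADAM10 proteolytic activity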
# [24] = HGIII-sPLA2 enzyme inhibition potency – biochemical, QFRET, IC50, dose response (AID 743457);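 note: green fluorescence rise as the enzyme cleaves BODIPY PC-A2 in liposomes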
# [25] = molecular target: Disintegrin and metalloproteinase domain-containing protein 17 (Homo sapiens, UniProt P78536); test: inhibition of ADAM17 substrate cleavage – biochemical, quenched FRET substrate, counter-screen for ADAM10 exosite inhibitor project, dose response (AID 743253)
# Chain of Disintegrin and metalloproteinase domain-containing protein 17 (P78536 whole entry, the tested form may be a part): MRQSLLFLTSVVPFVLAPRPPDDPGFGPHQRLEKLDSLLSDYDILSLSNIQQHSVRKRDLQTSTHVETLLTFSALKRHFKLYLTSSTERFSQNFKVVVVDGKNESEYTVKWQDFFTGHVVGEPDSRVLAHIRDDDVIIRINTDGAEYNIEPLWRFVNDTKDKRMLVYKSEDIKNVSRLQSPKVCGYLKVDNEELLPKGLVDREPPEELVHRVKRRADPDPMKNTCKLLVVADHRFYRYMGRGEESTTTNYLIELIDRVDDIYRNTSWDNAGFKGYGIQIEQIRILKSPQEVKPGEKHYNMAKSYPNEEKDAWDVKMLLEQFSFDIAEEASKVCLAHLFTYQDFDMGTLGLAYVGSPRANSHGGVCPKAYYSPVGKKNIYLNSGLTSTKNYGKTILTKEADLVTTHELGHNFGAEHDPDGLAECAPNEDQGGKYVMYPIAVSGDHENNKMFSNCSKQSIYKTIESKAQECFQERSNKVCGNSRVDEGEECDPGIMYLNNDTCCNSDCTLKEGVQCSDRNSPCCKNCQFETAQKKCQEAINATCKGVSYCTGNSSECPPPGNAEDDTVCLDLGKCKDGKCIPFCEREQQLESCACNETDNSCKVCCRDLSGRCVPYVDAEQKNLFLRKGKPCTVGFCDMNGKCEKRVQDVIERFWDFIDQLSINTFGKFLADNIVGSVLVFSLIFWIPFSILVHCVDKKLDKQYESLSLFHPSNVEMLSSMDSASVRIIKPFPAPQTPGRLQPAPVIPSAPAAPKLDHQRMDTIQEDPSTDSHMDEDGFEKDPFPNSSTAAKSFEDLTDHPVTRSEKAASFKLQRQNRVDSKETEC
# [26] = Late stage assay provider results from the probe development effort to identify inhibitors of the Plasmodium falciparum M18 Aspartyl Aminopeptidase (M18AAP): radiolabel-based cell-based dose response assay to identify compounds that inhibit P. falciparum growth in RBCs, Set 2..; type: functional
# [27] = growth inhibition of yeast DHODH-expressing 3D7 parasites – SYBR Green, dry powder samples, dose response (AID 1159570); type: functional, cell-based;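 note: parasite growth measured after 72 hours of compound exposure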
# [28] = P. falciparum Dd2 growth inhibitors, dose response, SYBR Green, cherry-picked samples (AID 1159567); type: functional, cell-based
# [29] = Dd2 malaria parasite growth inhibition potency – SYBR Green, dry powder samples, dose response (AID 1159566); type: functional, cell-based;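 note: potency for growth inhibition with lower SYBR green DNA signal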
# [30] = growth inhibition of PfATP4-mutant resistant parasites – NITD609-resistant line, SYBR Green, dry powder, dose response (AID 1159571); type: functional, cell-based;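 note: parasites synchronized at ring stage by sorbitol before testing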
# [31] = rise of 2N DNA cells, HeLa – IC50, dose response (AID 1117349); type: functional, cell-based
# [32] = CellTiter-Glo luminescence survival assay, SW480 colon tumor line, concentration-response curve, half-maximal inhibitory concentration (AID 1117338); type: functional
# [33] = RKO cell viability reduction, dose response, CellTiter-Glo luminescence (AID 1117322); type: functional
# [34] = cytotoxicity toward HCT116 cells – cell-based, CellTiter-Glo luminescence, IC50, dose response (AID 1117332); type: functional; settings: HCT-116
# [35] = SNU-C1 cell viability reduction, dose response, CellTiter-Glo luminescence (AID 1117323); type: functional, cell-based
# [36] = cytotoxicity toward Colo320 cells – cell-based, CellTiter-Glo luminescence, IC50, dose response (AID 1117334); type: functional; settings: COLO 320
# [37] = rise of 4N DNA cells, HeLa – IC50, dose response (AID 1117351); type: functional, cell-based
# [38] = cytotoxicity toward HT-29 cells – cell-based, CellTiter-Glo luminescence, IC50, dose response (AID 1117330); type: functional
# [39] = Reduced DLD-1 viability, concentration-response, CellTiter-Glo luminescence (AID 1117352); type: functional
# [40] = HCT116 cell viability decrease, GSK3B pretreatment – CellTiter-Glo, IC50, dose response (AID 1117339); type: functional; settings: HCT-116
smiles,measurement,setting,value
CCOc1ccc(NC(=O)c2ccc3c(c2)N(C)CCS3)cc1,IC50,[1],> 67.6 µM (inactive)
same,IC50,[2],> 67.6 µM (inactive)
C(=C\c1ccc2nncn2c1)/c1ccccc1,IC50,[3],1.45 µM (active)
C[C@H]1CCCCO[C@@H](CN(C)Cc2ccc(C(F)(F)F)cc2)[C@@H](C)CN([C@@H](C)CO)C(=O)c2cc(NS(=O)(=O)c3ccc(Cl)cc3)ccc2O1,AC50,[4],4.39 µM (active)
same,AC50,[5],36.4 µM (active)
same,AC50,[6],0.528 µM (active)
same,AC50,[7],11 µM (active)
same,AC50,[8],19.7 µM (active)
N#C[C@@H]1[C@H](c2ccc(C#CC3CCCCC3)cc2)[C@H](CO)N1S(=O)(=O)c1ccccc1,AC50,[4],11.1 µM (active)
same,AC50,[9],> 32 µM (inactive)
same,AC50,[10],29.9 µM (active)
same,AC50,[11],> 70 µM (inactive)
same,AC50,[12],36.6 µM (active)
same,AC50,[13],22.2 µM (active)
same,AC50,[14],25.6 µM (active)
COc1ccc(-c2cc(=O)n(-c3nc4ccccc4[nH]3)[nH]2)cc1,IC50,[15],> 32 µM (inactive)
same,EC50,[16],> 32 µM (inactive)
same,EC50,[17],> 32 µM (inactive)
same,IC50,[18],9.08 µM (active)
same,EC50,[19],> 31.5 µM (inactive)
same,IC50,[20],> 32 µM
same,EC50,[21],> 91.2 µM (inactive)
same,EC50,[22],> 91.2 µM (inactive)
CCN(CC)c1ccc(NC(=O)CSc2nc3ccccc3c(=O)n2-c2ccc(C)cc2)cc1,IC50,[23],> 69.5 µM (inactive)
same,IC50,[24],60.3 µM (inactive)
same,IC50,[25],> 69.5 µM (inactive)
CCOc1ccc2nccc(NCCc3ccc(OC)c(OC)c3)c2c1,IC50,[26],1.4 µM (active)
Oc1ccc(CCNc2ccnc3cc(Cl)ccc23)cc1O,IC50,[26],0.62 µM (active)
O=C(c1ccccc1F)N1CC(=O)N2[C@H](C1)[C@@H](c1ccc(-c3ccc(F)cc3)cc1)[C@@H]2CO,AC50,[27],1.72 µM (active)
same,AC50,[28],1.41 µM (active)
same,AC50,[29],0.497 µM (active)
same,AC50,[30],1.09 µM (active)
CC[C@H]1CN2CCc3cc(OC)c(OC)cc3[C@@H]2C[C@@H]1C[C@H]1NCCc2cc(OC)c(OC)cc21 [EMETINE],IC50,[31],> 10 µM (inactive)
same,IC50,[32],0.001 µM (active)
same,IC50,[33],0.00831 µM (active)
same,IC50,[34],0.0615 µM (active)
same,IC50,[35],0.00228 µM (active)
same,IC50,[36],0.0221 µM (active)
same,IC50,[37],> 10 µM (inactive)
same,IC50,[38],0.0163 µM (active)
same,IC50,[39],0.0116 µM (active)
same,IC50,[40],0.001 µM (active)
